Assay results reported in patent US11274332B2, “Methods of administering 3,4-diaminopyridine” (SERB SA, priority 2011, dated 2022).

Assay: Food-effect crossover study, adverse events after single 20 mg amifampridine phosphate in healthy subjects (Examples 10, 11)
Format: in vivo
Experimental: This was a randomized, open-label, 2-treatment, 2-period crossover study with 44 completed subjects to assess the safety, tolerability, and the effect of food on the relative bioavailability of a single dose of amifampridine phosphate.
Safety was evaluated for all subjects who take at least one dose of 3,4-DAP. Safety was evaluated by recording the incidence of adverse events (AEs), physical examination, vital signs, concomitant medications, clinical laboratory assessments, and 12-lead electrocardiogram (ECG).
Analysis for the following safety parameters was carried out on the Safety Population: AEs which included all AEs, AEs by severity, drug-related AEs, deaths, SAEs, AEs leading to study discontinuation, and most frequent AEs, standard clinical laboratory tests, vital signs, ECG measurements, routine physical examinations, and prior and concomitant medications. The cut-off for frequency of AEs reported was determined based on the data. No formal statistical testing was performed for the safety analyses; only descriptive statistics were provided. Appropriate descriptive statistics for the safety data were determined using SAS Version 9.2.
AEs were coded according to the Medical Dictionary for Regulatory Activities (MedDRA; Version 13.0). […] The occurrence of AEs was assessed continuously from the time the subject signed the VID and consent. The reporting period for non-serious AEs was from the first dose to the final study visit. The investigator determined the severity of each event and the relationship of an AE to the IP and recorded it on the source documents and AE CRF. The nature, time of onset, duration, severity, and relationship to study drug was documented, including documentation of investigator assessment and review. All events were assessed to determine if the AE was serious.
The Investigator determined the severity of each event and the event was recorded on the source documents and AE CRF. A coding of “mild” meant there was no limitation of usual activities, “moderate” meant there was some limitation of usual activities, “severe” meant there was an inability to carry out usual activities.
The reporting period for AEs that met the criteria of an SAE began from the time of signing the VID and consent form through follow-up or early termination. […] Clinical Laboratory Assessments

Structure (SMILES): Nc1ccncc1N [3,4-DAP, 3,4-diaminopyridine]
- paraesthesias among the 93 drug-related AEs: % of events (Overall): 54%
- paraesthesias among the 93 drug-related AEs: events (Overall): 50
- Abdominal Pain, drug-related AE: events (Overall N=47): 3
- Dizziness, drug-related AE: events (Overall N=47): 7
- Dysgeusia, drug-related AE: events (Overall N=47): 3
- Fatigue, drug-related AE: events (Overall N=47): 4
- Gastrointestinal Disorders Total, drug-related AE: % of subjects (Overall N=47): 19%
- Gastrointestinal Disorders Total, drug-related AE: events (Overall N=47): 12
- Gastrointestinal Disorders Total, drug-related AE: subjects (Overall N=47): 9
- Headache, drug-related AE: events (Overall N=47): 5
- Hypoaesthesia Oral, drug-related AE: events (Overall N=47): 6
- Nausea, drug-related AE: events (Overall N=47): 4
- Nervous System Disorders Total, drug-related AE: % of subjects (Overall N=47): 57%
- Nervous System Disorders Total, drug-related AE: events (Overall N=47): 74
- Nervous System Disorders Total, drug-related AE: subjects (Overall N=47): 27
- Paraesthesia Oral, drug-related AE: events (Overall N=47): 30
- Paraesthesia, drug-related AE: events (Overall N=47): 20
